Read-outs that look alike come from different tables or passages of the source.
Assays:
FGFR3 = target: T1, FGFR3 (Homo sapiens, UniProt P22607); experiment: Kinase binding assay (kinase-tagged T7 phage, affinity beads, qPCR), Kd; settings: read-out: FGFR3 (Kd nM)
T1 construct: made in house; host or cells: E. coli (BL21-derived), T7 phage
Method in brief: (§1)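 First, phage lysates carrying tagged kinase are made in E. coli at 32° C. Next, they are combined with blocked biotin-ligand streptavidin beads and compound at 0.9% final DMSO. Finally, eluted kinase is measured by qPCR and Kd is fitted with the Hill equation.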

FGFR1 = target: T2, FGFR1 (Homo sapiens, UniProt P11362); experiment: as above; settings: read-out: FGFR1 (Kd nM)
T2 construct: made in house; host or cells: E. coli (BL21-derived), T7 phage
Method in brief: as §1

FGFR3 (V555M) = target: T3, FGFR3 (V555M) (Homo sapiens, UniProt P22607, V555M); experiment: as above; settings: V555M mutant; read-out: FGFR3 (V555M) (Kd nM)
T3 construct: made in house; host or cells: E. coli (BL21-derived), T7 phage
Method in brief: as §1

FGFR2 = target: T4, FGFR2 (Homo sapiens, UniProt P21802); experiment: as above; settings: read-out: FGFR2 (Kd nM)
T4 construct: made in house; host or cells: E. coli (BL21-derived), T7 phage
Method in brief: as §1

FGFR4 = target: T5, FGFR4 (Homo sapiens, UniProt P22455); experiment: as above; settings: read-out: FGFR4 (Kd nM)
T5 construct: made in house; host or cells: E. coli (BL21-derived), T7 phage
Method in brief: as §1

[1] = system: HuH7 cell line (FGF19 amplification); experiment: Cancer cell line cell viability assay (Cell Titer-Glo), 120 hr; format: cell-based; settings: Homo sapiens, Huh-7
From the text: Experimental Purpose: To detect the change of intracellular ATP by Cell Titer-Glo® and to evaluate the inhibitory effect of the compounds on cancer cell lines by determining the in vitro IC50 value of the compounds.
Cell Titer-Glo® 2.0 Luminescent cell viability assay reagent was purchased from Promega (Madison, WI). KG-1, KATO-III, and MDA-MB-453 cell lines were purchased from American Type Culture Collection (Manassas, VA). RT112/84 cell line was purchased from Millipore-Sigma (St. Louis, MO). HuH7 cells were purchased from Seikisui Xenotech (Kansas City, KS). RT112/84 and MDA-MB-453 cells were cultured in RPMI1640 media supplemented with 10% fetal bovine serum. KG-1 and KATO-III cell lines were cultured in IMDM media supplemented with 20% FBS. HuH7 cells were cultured in IMDM media supplemented with 10% FBS. Cultures were maintained at 37° C. in a humidified atmosphere of 5% CO2 and 95% air.
Cell Viability Assay Procedure: Cells were plated in 96-well clear bottom/white plates (Corning #3903) at a range of densities depending on the optimal assay window (5,000-20,000 cells/well in […] of media), incubated overnight. The next day, test compound DMSO stock solutions were made at 10 mM and […] final concentration. Compounds were then added to cells in a 9-dose, 4-fold dilution series starting at 3 μM with an HP 300e Digital Dispenser (each dose was applied in triplicate). DMSO was backfilled to each well up to 301 nL total volume of test compound+DMSO, and a total of 301 nL DMSO was added to a control/no test compound well in triplicate. The cells in cell culture plates were incubated with the compounds at 37° C. and 5% CO2 for 72 hours-120 hours depending on the cell line. Then 50 μl of Cell Titer Glo 2.0 reagent was added to each well of the cell culture plates. The contents were covered from light and mixed on an orbital shaker at room temperature for minimum of 10 min. Luminescence was recorded by a Clariostar Plus Microplate Reader (BMG Labtech, Cary, NC). Cells were assessed as a percentage of DMSO only treated control cells. Curves were plotted and IC50 values were calculated using the GraphPad Prism 9 program based on a sigmoidal dose-response equation (log (inhibitor) vs. response—Variable slope, 4-parameter).

[2] = kinase binding assay, 11-point 3-fold dilution series

T1 sequence (P22607 23-806): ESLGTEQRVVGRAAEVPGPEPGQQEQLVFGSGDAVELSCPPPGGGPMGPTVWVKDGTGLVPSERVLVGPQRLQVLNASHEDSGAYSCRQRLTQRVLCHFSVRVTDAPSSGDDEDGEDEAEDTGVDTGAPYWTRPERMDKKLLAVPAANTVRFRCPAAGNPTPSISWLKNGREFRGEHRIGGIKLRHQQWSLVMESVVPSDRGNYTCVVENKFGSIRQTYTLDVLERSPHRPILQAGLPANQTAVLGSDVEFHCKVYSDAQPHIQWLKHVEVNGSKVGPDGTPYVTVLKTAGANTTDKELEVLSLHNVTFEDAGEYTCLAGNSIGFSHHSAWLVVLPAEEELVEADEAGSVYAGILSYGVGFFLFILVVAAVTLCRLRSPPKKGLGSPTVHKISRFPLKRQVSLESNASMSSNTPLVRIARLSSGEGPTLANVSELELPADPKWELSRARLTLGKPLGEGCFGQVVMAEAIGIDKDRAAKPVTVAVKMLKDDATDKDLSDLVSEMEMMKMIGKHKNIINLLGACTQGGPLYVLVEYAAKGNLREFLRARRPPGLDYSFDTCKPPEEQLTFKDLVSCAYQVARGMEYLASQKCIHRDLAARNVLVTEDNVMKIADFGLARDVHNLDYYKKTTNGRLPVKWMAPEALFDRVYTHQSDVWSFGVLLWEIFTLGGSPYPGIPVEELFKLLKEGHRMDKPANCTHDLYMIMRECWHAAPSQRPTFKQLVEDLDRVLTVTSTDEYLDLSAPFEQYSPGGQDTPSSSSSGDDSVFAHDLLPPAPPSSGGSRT
T3 sequence (P22607 23-806 V555M): as the sequence (P22607 23-806) above, with V533M counted along it
T2 sequence (P11362 22-822): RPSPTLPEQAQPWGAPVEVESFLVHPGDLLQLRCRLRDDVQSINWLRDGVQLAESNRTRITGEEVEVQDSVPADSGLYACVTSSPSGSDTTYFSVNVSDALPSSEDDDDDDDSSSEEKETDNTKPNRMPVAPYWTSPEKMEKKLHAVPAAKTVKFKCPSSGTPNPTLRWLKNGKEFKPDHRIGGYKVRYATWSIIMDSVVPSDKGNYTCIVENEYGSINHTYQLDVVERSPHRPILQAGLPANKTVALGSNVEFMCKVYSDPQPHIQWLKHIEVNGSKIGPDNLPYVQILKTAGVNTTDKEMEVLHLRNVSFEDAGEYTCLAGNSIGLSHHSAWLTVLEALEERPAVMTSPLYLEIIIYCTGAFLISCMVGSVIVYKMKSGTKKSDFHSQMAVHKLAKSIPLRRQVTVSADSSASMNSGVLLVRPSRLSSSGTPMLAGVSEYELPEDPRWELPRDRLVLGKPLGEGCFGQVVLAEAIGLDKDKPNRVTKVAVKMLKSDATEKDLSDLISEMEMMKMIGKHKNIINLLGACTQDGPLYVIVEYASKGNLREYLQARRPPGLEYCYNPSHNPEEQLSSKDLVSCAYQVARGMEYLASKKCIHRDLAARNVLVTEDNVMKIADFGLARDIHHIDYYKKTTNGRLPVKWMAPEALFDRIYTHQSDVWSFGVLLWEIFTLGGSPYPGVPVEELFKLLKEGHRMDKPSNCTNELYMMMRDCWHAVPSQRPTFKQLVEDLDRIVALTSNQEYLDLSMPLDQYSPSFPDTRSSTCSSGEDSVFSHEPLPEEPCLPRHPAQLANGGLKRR
T5 sequence (P22455 22-802): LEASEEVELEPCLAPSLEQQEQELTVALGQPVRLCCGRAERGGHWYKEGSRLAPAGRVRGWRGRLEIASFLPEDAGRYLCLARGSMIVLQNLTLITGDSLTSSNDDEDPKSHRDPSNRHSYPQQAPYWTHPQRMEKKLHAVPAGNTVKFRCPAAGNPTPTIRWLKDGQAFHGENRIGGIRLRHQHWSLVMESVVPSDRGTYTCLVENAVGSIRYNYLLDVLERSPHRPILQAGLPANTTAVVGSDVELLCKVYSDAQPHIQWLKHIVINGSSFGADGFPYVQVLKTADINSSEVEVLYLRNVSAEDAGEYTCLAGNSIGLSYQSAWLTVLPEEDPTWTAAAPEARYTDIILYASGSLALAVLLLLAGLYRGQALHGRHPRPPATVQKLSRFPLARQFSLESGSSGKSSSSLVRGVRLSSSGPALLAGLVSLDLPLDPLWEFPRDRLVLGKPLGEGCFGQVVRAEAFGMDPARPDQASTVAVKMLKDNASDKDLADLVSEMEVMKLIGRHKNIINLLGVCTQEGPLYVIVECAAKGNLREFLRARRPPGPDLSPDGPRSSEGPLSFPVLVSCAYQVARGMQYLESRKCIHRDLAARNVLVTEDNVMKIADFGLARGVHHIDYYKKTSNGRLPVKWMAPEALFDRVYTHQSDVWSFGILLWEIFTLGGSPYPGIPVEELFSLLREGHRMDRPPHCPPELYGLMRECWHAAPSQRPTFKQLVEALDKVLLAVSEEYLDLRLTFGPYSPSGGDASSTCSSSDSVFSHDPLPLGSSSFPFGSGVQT
T4 sequence (P21802 22-821): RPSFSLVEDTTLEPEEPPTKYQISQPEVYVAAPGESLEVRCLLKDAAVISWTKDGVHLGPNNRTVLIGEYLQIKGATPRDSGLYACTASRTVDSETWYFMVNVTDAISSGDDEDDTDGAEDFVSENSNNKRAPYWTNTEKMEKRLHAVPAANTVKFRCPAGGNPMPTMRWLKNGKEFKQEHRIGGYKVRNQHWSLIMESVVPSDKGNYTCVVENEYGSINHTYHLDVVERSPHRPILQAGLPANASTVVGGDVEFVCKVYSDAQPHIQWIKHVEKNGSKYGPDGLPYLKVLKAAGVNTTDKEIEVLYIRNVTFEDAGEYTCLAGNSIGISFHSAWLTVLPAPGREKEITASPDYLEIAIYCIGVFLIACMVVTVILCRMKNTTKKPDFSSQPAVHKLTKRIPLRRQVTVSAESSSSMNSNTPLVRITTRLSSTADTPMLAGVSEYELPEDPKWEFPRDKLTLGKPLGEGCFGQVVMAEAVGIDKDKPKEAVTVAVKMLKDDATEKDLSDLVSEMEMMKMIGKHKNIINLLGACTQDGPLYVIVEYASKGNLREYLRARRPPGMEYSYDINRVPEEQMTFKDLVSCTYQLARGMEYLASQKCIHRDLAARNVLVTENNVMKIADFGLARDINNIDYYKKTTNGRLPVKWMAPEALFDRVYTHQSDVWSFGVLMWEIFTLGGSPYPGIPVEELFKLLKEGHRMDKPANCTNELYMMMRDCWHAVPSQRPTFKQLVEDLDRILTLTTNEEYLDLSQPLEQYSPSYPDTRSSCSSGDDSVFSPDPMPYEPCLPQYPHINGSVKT

| SMILES | Kd (FGFR3) [nM] | Kd (FGFR1) [nM] | Kd (FGFR3 (V555M)) [nM] | Kd (FGFR2) [nM] | Kd (FGFR4) [nM] | IC50 [1] [µM] | Kd (FGFR3; [2]) [nM] | Kd (FGFR1; [2]) [nM] | Kd (FGFR2; [2]) [nM] | Kd (FGFR4; [2]) [nM] |
| --- | --- | --- | --- | --- | --- | --- | --- | --- | --- | --- |
| Cc1ncc(Cl)c([C@@H](C)Oc2ccc3[nH]nc(-c4cnc(N5CC(C)(OC(C)C)C5)c(C#N)c4)c3c2)c1Cl [Example 13, 5-[5-[(1R)-1-(3,5-dichloro-2-methyl-4-pyridyl)ethoxy]-1H-indazol-3-yl]-2-(3-isopropoxy-3-methyl-azetidin-1-yl)pyridine-3-carbonitrile] | 50 to 300 | > 1000 | 50 to 300 | > 1000 | 1 to 50 | 0.2 to 1 | – | – | – | – |
| C[C@@H](Oc1ccc2[nH]nc(-c3cnc(N4CC(C)(N(C)C)C4)c(C#N)c3)c2c1)c1c(Cl)cncc1Cl [Example 29, (R)-5-(5-(1-(3,5-dichloropyridin-4-yl)ethoxy)-1H-indazol-3-yl)-2-(3-(dimethylamino)-3-methylazetidin-1-yl)nicotinonitrile] | 1 to 50 | 50 to 300 | 1 to 50 | 50 to 300 | 1 to 50 | 0.05 to 0.2 | – | – | – | – |
| CCN(CC)C1(C)CN(c2ncc(-c3n[nH]c4ccc(O[C@H](C)c5c(Cl)cncc5Cl)cc34)cc2C#N)C1 [Example 31, 5-[5-[(1R)-1-(3,5-dichloro-4-pyridyl)ethoxy]-1H-indazol-3-yl]-2-[3-(diethylamino)-3-methyl-azetidin-1-yl]pyridine-3-carbonitrile] | 1 to 50 | 1 to 50 | 1 to 50 | 50 to 300 | 1 to 50 | 0.05 to 0.2 | – | – | – | – |
| CNC1(C)CN(c2ncc(-c3n[nH]c4ccc(O[C@H](C)c5c(Cl)cnc(C)c5Cl)cc34)cc2C#N)C1 [Example 32, 5-[5-[(1R)-1-(3,5-dichloro-2-methyl-4-pyridyl)ethoxy]-1H-indazol-3-yl]-2-[3-methyl-3-(methylamino)azetidin-1-yl]pyridine-3-carbonitrile] | 1 to 50 | 1 to 50 | 1 to 50 | 50 to 300 | 1 to 50 | 0.05 to 0.2 | – | – | – | – |
| CCN(CC)C1(C)CN(c2ncc(-c3n[nH]c4ccc(O[C@H](C)c5c(Cl)cnc(C)c5Cl)cc34)cc2C#N)C1 [Example 36, 5-[5-[(1R)-1-(3,5-dichloro-2-methyl-4-pyridyl)ethoxy]-1H-indazol-3-yl]-2-[3-(diethylamino)-3-methyl-azetidin-1-yl]pyridine-3-carbonitrile] | 1 to 50 | 50 to 300 | 1 to 50 | 50 to 300 | 1 to 50 | 0.2 to 1 | – | – | – | – |
| Cc1ncc(Cl)c([C@@H](C)Oc2ccc3[nH]nc(-c4cnc(N5CC(C)(N6CCOCC6)C5)c(C#N)c4)c3c2)c1Cl [Example 38, 5-[5-[(1R)-1-(3,5-dichloro-2-methyl-4-pyridyl)ethoxy]-1H-indazol-3-yl]-2-(3-methyl-3-morpholino-azetidin-1-yl)pyridine-3-carbonitrile] | 1 to 50 | 300 to 1000 | 1 to 50 | 50 to 300 | 1 to 50 | 0.05 to 0.2 | – | – | – | – |
| Cc1ncc(Cl)c([C@@H](C)Oc2ccc3[nH]nc(-c4cnc(N5CC(C)(N)C5)c(C#N)c4)c3c2)c1Cl [Example 39, 2-(3-amino-3-methyl-azetidin-1-yl)-5-[5-[(1R)-1-(3,5-dichloro-2-methyl-4-pyridyl)ethoxy]-1H-indazol-3-yl]pyridine-3-carbonitrile] | 1 to 50 | 50 to 300 | 1 to 50 | 50 to 300 | 1 to 50 | 0.05 to 0.2 | – | – | – | – |
| COc1cc2[nH]nc(-c3cnc(N4CC[C@@](C)(NCC5CC5)C4)c(C#N)c3)c2cc1O[C@H](C)c1c(Cl)cncc1Cl [Example 409, 2-((R)-3-((cyclo-propylmethyl)-amino)-3-methylpyrrolidin-1-yl)-5-(5-((R)-1-(3,5-dichloropyridin-4-yl)ethoxy)-6-methoxy-1H-indazol-3-yl)nicotinonitrile] | – | – | – | – | – | 0.0001 to 0.05 | 1 to 50 | 1 to 50 | 1 to 50 | 1 to 50 |
| COc1cc2[nH]nc(-c3cnc(N4CC[C@](C)(NCC5CC5)C4)c(C#N)c3)c2cc1O[C@H](C)c1c(Cl)cncc1Cl [Example 410, 2-((S)-3-((cyclopropyl-methyl)-amino)-3-methylpyrrolidin-1-yl)-5-(5-((R)-1-(3,5-dichloropyridin-4-yl)ethoxy)-6-methoxy-1H-indazol-3-yl)nicotinonitrile] | – | – | – | – | – | 0.0001 to 0.05 | 1 to 50 | 1 to 50 | 1 to 50 | 1 to 50 |

Results, then the compound that gave them:

| Kd (FGFR3) [nM] | Kd (FGFR1) [nM] | Kd (FGFR3 (V555M)) [nM] | Kd (FGFR2) [nM] | Kd (FGFR4) [nM] | IC50 [1] [µM] | Kd (FGFR3; [2]) [nM] | Kd (FGFR1; [2]) [nM] | Kd (FGFR2; [2]) [nM] | Kd (FGFR4; [2]) [nM] | SMILES |
| --- | --- | --- | --- | --- | --- | --- | --- | --- | --- | --- |
| 1 to 50 | 1 to 50 | 1 to 50 | 1 to 50 | 1 to 50 | 0.0001 to 0.05 | – | – | – | – | COc1cc2[nH]nc(-c3cnc(N4CC(C)(N(C)C)C4)c(S(C)(=O)=O)c3)c2cc1O[C@H](C)c1c(Cl)cncc1Cl [Example 1, (R)-1-(5-(5-(1-(3,5-dichloropyridin-4-yl)ethoxy)-6-methoxy-1H-indazol-3-y1)-3-(methylsulfonyl)pyridin-2-yl)-N,N,3-trimethylazetidin-3-amine] |
| 1 to 50 | 50 to 300 | 1 to 50 | 1 to 50 | 1 to 50 | 0.0001 to 0.05 | – | – | – | – | C[C@@H](Oc1cc2c(-c3cnc(N4CC(C)(CP(C)(C)=O)C4)c(C#N)c3)n[nH]c2cc1F)c1c(Cl)cncc1Cl [Example 11, (R)-5-(5-(1-(3,5-dichloropyridin-4-yl)ethoxy)-6-fluoro-1H-indazol-3-yl)-2-(3-((dimethylphosphoryl)methyl)-3-methylazetidin-1-yl)nicotinonitrile] |
| 1 to 50 | 1 to 50 | 1 to 50 | 1 to 50 | 1 to 50 | 0.0001 to 0.05 | – | – | – | – | COc1cc2[nH]nc(-c3cnc(N4CC(C)(NC5CCC5)C4)c(C#N)c3)c2cc1O[C@H](C)c1c(Cl)cncc1Cl [Example 12, (R)-2-(3-(cyclobutylamino)-3-methylazetidin-1-yl)-5-(5-(1-(3,5-dichloropyridin-4-yl)ethoxy)-6-methoxy-1H-indazol-3-yl)nicotinonitrile] |
| 1 to 50 | 50 to 300 | 1 to 50 | 50 to 300 | 1 to 50 | 0.0001 to 0.05 | – | – | – | – | C[C@@H](Oc1ccc2[nH]nc(-c3cnc(N4CC(C)(CNS(C)(=O)=O)C4)c(C#N)c3)c2c1)c1c(Cl)cncc1Cl [Example 18, (R)-N-((1-(3-cyano-5-(5-(1-(3,5-dichloropyridin-4-yl)ethoxy)-1H-indazol-3-yl)pyridin-2-yl)-3-methylazetidin-3-yl)methyl)methane-sulfonamide] |
| 1 to 50 | 1 to 50 | 1 to 50 | 1 to 50 | 1 to 50 | 0.0001 to 0.05 | – | – | – | – | Cc1ncc(Cl)c([C@@H](C)Oc2ccc3[nH]nc(-c4cnc(N5CC(C)(NC6COC6)C5)c(C#N)c4)c3c2)c1Cl [Example 30, 5-[5-[(1R)-1-(3,5-dichloro-2-methyl-4-pyridyl)ethoxy]-1H-indazol-3-yl]-2-[3-methyl-3-(oxetan-3-ylamino)azetidin-1-yl]pyridine-3-carbonitrile] |
| 1 to 50 | 1 to 50 | 1 to 50 | 1 to 50 | 1 to 50 | 0.0001 to 0.05 | – | – | – | – | CCNC1(C)CN(c2ncc(-c3n[nH]c4ccc(O[C@H](C)c5c(Cl)cncc5Cl)cc34)cc2C#N)C1 [Example 35, (R)-5-(5-(1-(3,5-dichloropyridin-4-yl)ethoxy)-1H-indazol-3-yl)-2-(3-(ethylamino)-3-methylazetidin-1-yl)nicotinonitrile] |
| 1 to 50 | 1 to 50 | – | 1 to 50 | 1 to 50 | 0.0001 to 0.05 | – | – | – | – | COc1cc2[nH]nc(-c3cnc(N4CC(C)(O)C4)c(C#N)c3)c2cc1O[C@H](C)c1c(Cl)cncc1Cl [Example 370, 5-[5-[(1R)-1-(3,5-dichloro-4-pyridyl)ethoxy]-6-methoxy-1H-indazol-3-yl]-2-(3-hydroxy-3-methyl-azetidin-1-yl)pyridine-3-carbonitrile] |

From US20250368666A1, “INDAZOLE COMPOUNDS” (TYRA BIOSCIENCES, INC., priority 2022, published 2025)
